The assay has as its system SUM149PT spheroids with HUVEC/MSC, viability. Briefly: Anticancer human tumor SUM149PT cell line growth inhibition [GQUAD].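 On all read-outs here: spheroids exposed to drugs for seven days before readout.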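 On viability, T/C: percent viability relative to DMSO vehicle control taken as 100%.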 As to conditions: for viability, T/C: stronger effect = lower value. Put shortly: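 Multi-cell-type spheroids of tumor cells with HUVEC and mesenchymal stem cells, treated with drug combinations. Concentrations descend in half-log steps from near clinical Cmax, or from 10 microM where Cmax is unknown; viability read-out.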

“And” between values parts separate entries of the source, which are not always exact repeats. Equal values may be shown once.

Consider `CCCS(=O)(=O)Nc1ccc(F)c(C(=O)c2c[nH]c3ncc(-c4ccc(Cl)cc4)cc23)c1F` + CN(C)c1ccc(Nc2c3ccc(NC(=O)CCN4CCCC4)cc3nc3cc(NC(=O)CCN4CCCC4)ccc23)cc1, for which the half-inhibitory concentration (IC50) (in general, the concentration at which inhibition is half-maximal) reads like this: (curve of first compound, second compound 0.0316 µM) 7.63 µM; (curve of first compound, second compound 0.1 µM) 7.28 µM; (curve of first compound, second compound 0.316 µM) 7.79 µM; (curve of first compound, second compound 1 µM) 4.18 µM; (curve of first compound, second compound 3.16 µM) 3.09 µM; (curve of first compound, second compound 10 µM) 2.4 µM. For the same molecule, the viability, T/C (as a rule, the ratio of treated to control) is 108% (second compound 0.0316 µM, first compound 0.0316 µM); 91.9% (second compound 0.0316 µM, first compound 0.1 µM); 103% (second compound 0.0316 µM, first compound 0.316 µM); 98.1% (second compound 0.0316 µM, first compound 1 µM); 74.5% (second compound 0.0316 µM, first compound 3.16 µM); 42.4% (second compound 0.0316 µM, first compound 10 µM). Moreover, the viability, T/C (second compound 0.1 µM, first compound 0.0316 µM) is 95.7%; the viability, T/C (second compound 0.1 µM, first compound 0.1 µM) was 103%; the viability, T/C (second compound 0.1 µM, first compound 0.316 µM) was 102%; the viability, T/C (second compound 0.1 µM, first compound 1 µM) was 100%; the viability, T/C (second compound 0.1 µM, first compound 3.16 µM) is 76.3%; the viability, T/C (second compound 0.1 µM, first compound 10 µM) is 40%. The viability, T/C is 96.4% (second compound 0.316 µM, first compound 0.0316 µM); 96.2% (second compound 0.316 µM, first compound 0.1 µM); 96.4% (second compound 0.316 µM, first compound 0.316 µM); 90% (second compound 0.316 µM, first compound 1 µM); 67% (second compound 0.316 µM, first compound 3.16 µM); 45.3% (second compound 0.316 µM, first compound 10 µM). Further, the viability, T/C was 92.2% (second compound 1 µM, first compound 0.0316 µM); 84.3% (second compound 1 µM, first compound 0.1 µM); 91% (second compound 1 µM, first compound 0.316 µM); 89.7% (second compound 1 µM, first compound 1 µM); 54.6% (second compound 1 µM, first compound 3.16 µM); 35.4% (second compound 1 µM, first compound 10 µM). Also, the viability, T/C reads like this: (second compound 3.16 µM, first compound 0.0316 µM) 83.2%; (second compound 3.16 µM, first compound 0.1 µM) 89.6%; (second compound 3.16 µM, first compound 0.316 µM) 86.4%; (second compound 3.16 µM, first compound 1 µM) 81.7%; (second compound 3.16 µM, first compound 3.16 µM) 49.3%; (second compound 3.16 µM, first compound 10 µM) 24%. Also, the viability, T/C (second compound 10 µM, first compound 0.0316 µM) was 84.8%; the viability, T/C (second compound 10 µM, first compound 0.1 µM) is 80.4%; the viability, T/C (second compound 10 µM, first compound 0.316 µM) was 89.6%; the viability, T/C (second compound 10 µM, first compound 1 µM) is 71.1%; the viability, T/C (second compound 10 µM, first compound 3.16 µM) is 43.2%; the viability, T/C (second compound 10 µM, first compound 10 µM) was 11.9%.
`CC1COCCN1c1cc(C2(O)CC3CCC(C2)O3)c2cnn(-c3ccn[nH]3)c2n1` (stereo not drawn): the viability, T/C is 71.4% and 88.3% and 80.1% (compound 0.0316 µM); 28.2% and 38.6% and 42.2% (compound 0.1 µM); 23.5% and 28.2% and 31.8% (compound 0.316 µM); 21.8% and 24.9% and 25.9% (compound 1 µM); 19.8% and 24.2% and 26.4% (compound 3.16 µM); 14.5% and 15.5% and 18.8% (compound 10 µM). Moreover, where the note is “curve of compound”, the IC50 is 0.0568 µM and 0.079 µM and 0.0827 µM.
As for `CC(C)n1c(=O)n(C)c2cnc3cc(F)c(-c4ccc(OCCCN5CCCCC5)nc4)cc3c21`, the viability, T/C is, setting by setting: (compound 0.0316 µM) 96.3% and 102% and 96.4%; (compound 0.1 µM) 87.4% and 89.6% and 75.7%; (compound 0.316 µM) 94.5% and 98.5% and 85.1%; (compound 1 µM) 101% and 94.2% and 96.9%; (compound 3.16 µM) 98.9% and 96.3% and 105%; (compound 10 µM) 67.4% and 66.7% and 62.4%. For the setting “curve of compound”, the IC50 is above 10 µM.
As for `COc1ncnc(C2CC2)c1-c1ncc2cnn(Cc3ccc(-c4nc(C(F)(F)F)cn4C(C)C)cc3)c2n1`, the viability, T/C reads like this: (compound 0.0316 µM) 97.5% and 104% and 97.6%; (compound 0.1 µM) 74.3% and 85.3% and 87.7%; (compound 0.316 µM) 88.8% and 90.9% and 90.6%; (compound 1 µM) 76% and 81.9% and 80.4%; (compound 3.16 µM) 89.2% and 95.1% and 95.5%; (compound 10 µM) 95.5% and 94.5% and 101%. Further, the 50% inhibitory concentration (IC50) (curve of compound) is above 10 µM.

The values are drawn from PubChem BioAssay AID2060484 (Molecular Pharmacology Branch, DTP, NCI, 2025).
